# Where “and” joins values, the source holds several entries; their conditions need not be identical. Equal values may be shown once. Read-outs that look alike come from different tables or passages of the source.
# Legend:
# P388 leukemia cells = assay: Cytotoxicity on tissue culture: growth inhibition of cultured P388 leukemia cells; format: cell-based
# Description: (1) Cytotoxicity (on tissue culture)
# The barminomycin compounds of the present invention were capable of inhibiting the growth of cultured P388 leukemia cells in very low concentrations. […] For further detail, see the following table.
# L1210 leukemia cells = assay: Anti-tumor activity: L1210 leukemia transplanted intraperitoneally into CDF1 mice, life prolongation; format: in vivo; conditions: for percentage life prolongation (T/C%): saline control = 100; for intoxication: L1210-bearing CDF1 mice
# Method: L1210 leukemia cells (1 x 10^5 per animal) were transplanted intraperitoneally into CDF1 mice. Immediately after the transplantation, 0.25 ml of a selected test compound in solution was administered intraperitoneally in accordance with the schedule shown below. The anti-tumor activities of the test compounds in terms of percentage life prolongation (T/C%) are listed in the same table, with the number of days of survival of control mice to which physiological saline had been administered being taken as 100 (day 0 means the day of L1210 transplantation).
# [1] = system: Bacillus subtilis PCI 219; assay: Antimicrobial activity, MIC by agar dilution method; format: cell-based; conditions: Bacillus subtilis PCI 219, agar dilution method
# Method: (§1) The antimicrobial activities of barminomycin I and Ir of the present invention, and that of carminomycin III were determined by the agar dilution method.
# E. coli BE1121 = assay: as above; format: cell-based
# Method: as §1
# E. coli BE1186 = assay: as above; format: cell-based
# Method: as §1
# E. coli K-12 = assay: as above; format: cell-based; conditions: E. coli K-12, agar dilution method
# Method: as §1
# E. coli NIHJ = assay: as above; format: cell-based
# Method: as §1
# [2] = system: Klebsiella p eumoniae PCI 602; assay: as above; format: cell-based; conditions: Klebsiella p eumoniae PCI 602, agar dilution method
# Method: as §1
# [3] = system: Micrococcus Lysodeikticus IFO 3333; assay: as above; format: cell-based; conditions: Micrococcus Lysodeikticus IFO 3333, agar dilution method
# Method: as §1
# [4] = system: Mycobacterium smegmatis 607; assay: as above; format: cell-based; conditions: Mycobacterium smegmatis 607, agar dilution method
# Method: as §1
# Proteus vulgaris OX19 = assay: as above; format: cell-based
# Method: as §1
# [5] = system: Pseudomonas aeruginosa A3; assay: as above; format: cell-based
# Method: as §1
# S. aureus MS8710 = assay: as above; format: cell-based
# Method: as §1
# S. aureus MS9610 = assay: as above; format: cell-based
# Method: as §1
# S. aureus Smith = assay: as above; format: cell-based
# Method: as §1
# Serratia marcescens = assay: as above; format: cell-based
# Method: as §1
# [6] = system: Staphylococcus aureus FAD 209P; assay: as above; format: cell-based
# Method: as §1
# [7] = 0.0078 µg/mouse/day intraperitoneally, 0 - 10 days (daily)
# [8] = 0.0157 µg/mouse/day intraperitoneally, 0 - 10 days (daily)
# [9] = 0.0625 µg/mouse/day intraperitoneally, 0 - 10 days (daily)
# [10] = 0.125 µg/mouse/day intraperitoneally, 0 - 10 days (daily)
# [11] = 0.25 µg/mouse/day intraperitoneally, 0 - 10 days (daily)
# [12] = 1.25 µg/mouse/day intraperitoneally, 0 - 9 days (daily)
# [13] = 2.5 µg/mouse/day intraperitoneally, 0 - 9 days (daily)
# [14] = 5 µg/mouse/day intraperitoneally, 0 - 9 days (daily)
# [15] = 10 µg/mouse/day intraperitoneally, 0 - 9 days (daily)
# [16] = 20 µg/mouse/day intraperitoneally, 0 - 9 days (daily)
# [17] = 40 µg/mouse/day intraperitoneally, 0 - 9 days (daily)
Compound,IC50 (P388 leukemia cells),MIC [1] [µg/mL],MIC (E. coli BE1121) [µg/mL],MIC (E. coli K-12) [µg/mL],MIC (E. coli NIHJ) [µg/mL],MIC [2] [µg/mL],MIC [3] [µg/mL],MIC [4] [µg/mL],MIC (Proteus vulgaris OX19) [µg/mL],MIC [5] [µg/mL],MIC (S. aureus MS8710) [µg/mL],MIC (S. aureus MS9610) [µg/mL],MIC (S. aureus Smith) [µg/mL],MIC (Serratia marcescens) [µg/mL],MIC [6] [µg/mL],further results
"CC(=O)C1(O)Cc2c(O)c3c(c(O)c2C(OC2CC4N=CC(C)OC(CC(C)O)OC4C(C)O2)C1)C(=O)c1c(O)cccc1C3=O (single isomer, unassigned) [Barminomycin II]",~ 0.00002 µg/mℓ,,,,,,,,,,,,,,,"percentage life prolongation (T/C%) (L1210 leukemia cells; [7]): >500%, >500%; percentage life prolongation (T/C%) (L1210 leukemia cells; [8]): 120%; intoxication (L1210 leukemia cells; [9]): tendency of intoxication; intoxication (L1210 leukemia cells; [10]): tendency of intoxication; percentage life prolongation (T/C%) (L1210 leukemia cells; [10]): 173%; intoxication (L1210 leukemia cells; [11]): Intoxicated to death at 4 days, and 5 days; percentage life prolongation (T/C%) (L1210 leukemia cells; 0.313 µg/mouse/day intraperitoneally, 0 - 10 days (daily)): 140%"
"CC(=O)C1(O)Cc2c(O)c3c(c(O)c2C(OC2CC4NCC(C)OC(CC(C)O)OC4C(C)O2)C1)C(=O)c1c(O)cccc1C3=O (single isomer, unassigned) [Barminomycin IIr]",0.002 µg/mL,,,,,,,,,,,,,,,percentage life prolongation (T/C%) (L1210 leukemia cells; [12]): 123%; percentage life prolongation (T/C%) (L1210 leukemia cells; [13]): 129%; percentage life prolongation (T/C%) (L1210 leukemia cells; [14]): 123%; percentage life prolongation (T/C%) (L1210 leukemia cells; [15]): 86%; intoxication (L1210 leukemia cells; [16]): Intoxication; percentage life prolongation (T/C%) (L1210 leukemia cells; [16]): 43%; intoxication (L1210 leukemia cells; [17]): Intoxication; percentage life prolongation (T/C%) (L1210 leukemia cells; [17]): 37%
"CC(=O)C1(O)Cc2c(O)c3c(c(O)c2C(OC2CC4NCC(C)OC(CC(C)O)OC4C(C)O2)C1)C(=O)c1c(O)cccc1C3=O (single isomer, unassigned) [Barminomycin Ir]",0.0015 µg/mL,0.39,0.2,6.25,50,6.25,0.78,6.25,>50,12.5,1.56,1.56,0.78,3.12,0.78,percentage life prolongation (T/C%) (L1210 leukemia cells; [12]): 97%; percentage life prolongation (T/C%) (L1210 leukemia cells; [13]): 129%; percentage life prolongation (T/C%) (L1210 leukemia cells; [14]): 141%; intoxication (L1210 leukemia cells; [15]): Tendency of intoxication; percentage life prolongation (T/C%) (L1210 leukemia cells; [15]): 49%; intoxication (L1210 leukemia cells; [16]): Intoxication; percentage life prolongation (T/C%) (L1210 leukemia cells; [16]): 37%; intoxication (L1210 leukemia cells; [17]): Intoxication; percentage life prolongation (T/C%) (L1210 leukemia cells; [17]): 25%; MIC (E. coli BE1186): 0.2 µg/mL
"COc1cccc2c1C(=O)c1c(O)c3c(c(O)c1C2=O)C[C@@](O)(C(=O)CO)C[C@@H]3O[C@H]1C[C@H](N)[C@H](O)[C@H](C)O1 [Adriamycin, adriamycin, reference compound]",,,,,,,,,,,,,,,,"IC50 (P388 leukemia cells; Mus musculus, read-out: IC50): 0.013 µg/mL"
CC(=O)C1(O)Cc2c(O)c3c(c(O)c2C(OC2CC4N=CC(C)OC(CC(C)O)OC4C(C)O2)C1)C(=O)c1c(O)cccc1C3=O (centres unmarked) [Barminomycin I],~ 0.00001 µg/mℓ,<0.1,<0.1,0.78,3.12,0.39,0.2,0.78,3.12,1.56,0.2,0.2,0.2,0.78,0.2,percentage life prolongation (T/C%) (L1210 leukemia cells; [7]): 160%; percentage life prolongation (T/C%) (L1210 leukemia cells; [8]): 187% and 120%; percentage life prolongation (T/C%) (L1210 leukemia cells; [9]): 213% and 147%; intoxication (L1210 leukemia cells; [10]): tendency of intoxication; percentage life prolongation (T/C%) (L1210 leukemia cells; [10]): 147%; intoxication (L1210 leukemia cells; [11]): Intoxicated to death at 4 days; percentage life prolongation (T/C%) (L1210 leukemia cells; [11]): 120%; MIC (E. coli BE1186): <0.1 µg/mL
"CC(=O)[C@]1(O)Cc2c(O)c3c(c(O)c2[C@@H](O[C@H]2C[C@H](N)[C@H](O)[C@H](C)O2)C1)C(=O)c1c(O)cccc1C3=O [Carminomycin I, carminomycin I, reference compound]",,,,,,,,,,,,,,,,"IC50 (P388 leukemia cells; Mus musculus, read-out: IC50): 0.002 µg/mL"
"CC(=O)C1(O)Cc2c(O)c3c(c(O)c2C(OC2CC(N)C(OC(CC(C)O)OC(C)CO)C(C)O2)C1)C(=O)c1c(O)cccc1C3=O (centres unmarked) [Carminomycin II, carminomycin II, reference compound]",0.010 µg/mL,,,,,,,,,,,,,,,
carminomycin III [reference compound],0.006 µg/mL,1.56,1.56,>50,>50,50,1.56,6.25,>50,>50,1.56,1.56,3.12,25,3.12,

# Reference: patent EP0206138A1, “Anthracycline compounds, a process for their preparation and their use as medicaments” (priority 1985, dated 1986)
